Measured values: patent US20250179059A1 (The Regents of the University of California, priority 2021, published 2025)

Experiments:
[1] = test system: human SKM-1 acute myeloid leukemia cells; experiment: SKM-1 antiproliferation cell-based assay (ATPlite); conditions: Homo sapiens, SKM-1, 96 h, SKM-1 antiproliferation assay, 4 days, Table C2
Outline: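 Log-phase cells in RPMI 1640/15% FBS were seeded at 34722 cells/mL and exposed for 4 days to nine-concentration DMSO serial dilutions in triplicate. Viability was read as ATP luminescence (ATPlite 1step), and IC50 values came from variable-slope non-linear regression.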

[2] = target: T1, human BRD4 bromodomain II (Homo sapiens, UniProt O60885); experiment: Bromodomain binding assay (AlphaScreen), BRD4 BDII; conditions: AlphaScreen assay, Table C2; read-out: BRD4 BDII IC50
T1 construct: human BRD4 bromodomain II [based on Genbank NM_058243, residues 349-460]; host or cells: E. coli
Outline: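 AlphaScreen competition: His6-BRD4 BDI (aa 44-170) or BDII (aa 349-460) vs biotin-H4(1-21) K5/K8/K12/K16Ac peptide; Ni-chelate acceptor/streptavidin donor beads. HEPES pH 7.5, NaCl, CHAPS, BSA, 1% DMSO; RT. 10-pt 3-fold titration, % peptide binding fitted → IC50.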

Structure (SMILES) | GI50 [1] [nM] | IC50 [2] [nM]
Cc1ccc(S(=O)(=O)n2ccc3c(N4CCN[C@H](C)C4)cc(-c4cc(F)cc(-c5ccc(-n6ccn(C)c6=O)c(Cl)c5)c4O)cc32)cc1 [Example 608, (R)-1-(3-chloro-5′-fluoro-2′-hydroxy-3′-(4-(3-methylpiperazin-1-yl)-1-tosyl-1H-indol-6-yl)-[1,1′-biphenyl]-4-yl)-3-methyl-1H-imidazol-2(3H)-one] | 30 to 300 | 10 to 100
Cn1ccn(-c2ccc(-c3cc(F)cc(-c4cc(N5CCN6CCCCC6C5)c5cnn(C)c5c4)c3O)cc2Cl)c1=O (centres unmarked) [Example 609, 1-(3-chloro-5′-fluoro-3′-(4-(hexahydro-1H-pyrido[1,2-a]pyrazin-2(6H)-yl)-1-methyl-1H-indazol-6-yl)-2′-hydroxy-[1,1′-biphenyl]-4-yl)-3-methyl-1H-imidazol-2(3H)-one] | 0.3 to 30 | 0.01 to 1
Cn1ccn(-c2ccc(-c3cc(F)cc(-c4ccnc(N5CCN(C[C@@H](O)CO)CC5)c4)c3O)cc2Cl)c1=O [Example 610, (R)-1-(3-chloro-3′-(2-(4-(2,3-dihydroxypropyl)piperazin-1-yl)pyridin-4-yl)-5′-fluoro-2′-hydroxy-[1,1′-biphenyl]-4-yl)-3-methyl-1H-imidazol-2(3H)-one] | 0.3 to 30 | 0.01 to 1
Cn1ccn(-c2ccc(-c3cc(F)cc(-c4ccnc(N5CCN(CC6COC6)CC5)c4)c3O)cc2Cl)c1=O [Example 611, 1-(3-chloro-5′-fluoro-2′-hydroxy-3′-(2-(4-(oxetan-3-ylmethyl)piperazin-1-yl)pyridin-4-yl)-[1,1′-biphenyl]-4-yl)-3-methyl-1H-imidazol-2(3H)-one] | 0.3 to 30 | 0.01 to 1
Cn1ccn(-c2ccc(-c3cc(F)cc(-c4ccnc(N5CCCCC5)c4)c3O)cc2Cl)c1=O [Example 612, 1-(3-chloro-5′-fluoro-2′-hydroxy-3′-(2-(piperidin-1-yl)pyridin-4-yl)-[1,1′-biphenyl]-4-yl)-3-methyl-1H-imidazol-2(3H)-one] | 300 to 3000 | 1 to 10
Cn1ccn(-c2ccc(-c3cc(F)cc(-c4ccnc(N5CCCC5)c4)c3O)cc2Cl)c1=O [Example 613, 1-(3-chloro-5′-fluoro-2′-hydroxy-3′-(2-(pyrrolidin-1-yl)pyridin-4-yl)-[1,1′-biphenyl]-4-yl)-3-methyl-1H-imidazol-2(3H)-one] | 30 to 300 | 1 to 10
Cn1ccn(-c2ccc(-c3cc(F)cc(-c4ccnc(N5CCN(C(C)(C)C)CC5)c4)c3O)cc2Cl)c1=O [Example 614, 1-(3′-(2-(4-(tert-butyl)piperazin-1-yl)pyridin-4-yl)-3-chloro-5′-fluoro-2′-hydroxy-[1,1′-biphenyl]-4-yl)-3-methyl-1H-imidazol-2(3H)-one] | 0.3 to 30 | 0.01 to 1
Cn1ccn(-c2ccc(-c3cc(F)cc(-c4ccnc(N5CCOCC5)c4)c3O)cc2Cl)c1=O [Example 615, 1-(3-chloro-5′-fluoro-2′-hydroxy-3′-(2-morpholinopyridin-4-yl)-[1,1′-biphenyl]-4-yl)-3-methyl-1H-imidazol-2(3H)-one] | 30 to 300 | 1 to 10
Cn1ccn(-c2ccc(-c3cc(F)cc(-c4ccnc(N5CCN(CCN)CC5)c4)c3O)cc2Cl)c1=O [Example 616, 1-(3′-(2-(4-(2-aminoethyl)piperazin-1-yl)pyridin-4-yl)-3-chloro-5′-fluoro-2′-hydroxy-[1,1′-biphenyl]-4-yl)-3-methyl-1H-imidazol-2(3H)-one] | 0.3 to 30 | 0.01 to 1
Cn1ccn(-c2ccc(-c3cc(F)cc(-c4ccnc(N5CCN(CCCO)CC5)c4)c3O)cc2Cl)c1=O [Example 617, 1-(3-chloro-5′-fluoro-2′-hydroxy-3′-(2-(4-(3-hydroxypropyl)piperazin-1-yl)pyridin-4-yl)-[1,1′-biphenyl]-4-yl)-3-methyl-1H-imrdazol-2(3H)-one] | 0.3 to 30 | 0.01 to 1
Cn1ccn(-c2ccc(-c3cc(F)cc(-c4ccnc(N5CCN(C6CCOC6)CC5)c4)c3O)cc2Cl)c1=O (centres unmarked) [Example 618, 1-(3-chloro-5′-fluoro-2′-hydroxy-3′-(2-(4-(tetrahydrofuran-3-yl)piperazin-1-yl)pyridin-4-yl)-[1,1′-biphenyl]-4-yl)-3-methyl-1H-imidazol-2(3H)-one] | 30 to 300 | 0.01 to 1
Cn1ccn(-c2ccc(-c3cc(F)cc(-c4ccnc(N5CCN(C6CCC6)CC5)c4)c3O)cc2Cl)c1=O [Example 619, 1-(3-chloro-3′-(2-(4-cyclobutylpiperazin-l-yl)pyridin-4-yl)-5′-fluoro-2′-hydroxy-[1,1′-biphenyl]-4-yl)-3-methyl-1H-imidazol-2(3H)-one] | 0.3 to 30 | 0.01 to 1
Cn1ccn(-c2ccc(-c3cc(F)cc(-c4ccnc(N5CCN(CCCN)CC5)c4)c3O)cc2Cl)c1=O [Example 620, 1-(3′-(2-(4-(3-aminopropyl)piperazin-1-yl)pyridin-4-yl)-3-chloro-5′-fluoro-2′-hydroxy-[1,1′-biphenyl]-4-yl)-3-methyl-1H-imidazol-2(3H)-one] | 30 to 300 | 0.01 to 1
Cn1ccn(-c2ccc(-c3cc(F)cc(-c4ccnc(N5CCN(C[C@H](O)CO)CC5)c4)c3O)cc2Cl)c1=O [Example 621, (S)-1-(3-chloro-3′-(2-(4-(2,3-dihydroxypropyl)piperazin-1-yl)pyridin-4-yl)-5′-fluoro-2′-hydroxy-[1,1′-biphenyl]-4-yl)-3-methyl-1H-imidazol-2(3H)-one] | 0.3 to 30 | 0.01 to 1
Cn1ccn(-c2ccc(-c3cc(F)cc(-c4ccnc(N5CCC[C@@H](O)C5)c4)c3O)cc2Cl)c1=O [Example 622, (R)-1-(3-chloro-5′-fluoro-2′-hydroxy-3′-(2-(3-hydroxypiperidin-1-yl)pyridin-4-yl)-[1,1′-biphenyl]-4-yl)-3-methyl-1H-imidazol-2(3H)-one] | 30 to 300 | 1 to 10
Cn1ccn(-c2ccc(-c3cc(F)cc(-c4ccnc(N5CCCNCC5)c4)c3O)cc2Cl)c1=O [Example 623, 1-(3′-(2-(1,4-diazepan-1-yl)pyridin-4-yl)-3-chloro-5′-fluoro-2′-hydroxy-[1,1′-biphenyl]-4-yl)-3-methyl-1H-imidazol-2(3H)-one] | 0.3 to 30 | 0.01 to 1
Cn1ccn(-c2ccc(-c3cc(F)cc(-c4ccnc(N5CCN6CCCCC6C5)c4)c3O)cc2Cl)c1=O (centres unmarked) [Example 624, 1-(3-chloro-5′-fluoro-3′-(2-(hexahydro-1H-pyrido[1,2-a]pyrazin-2(6H)-yl)pyridin-4-yl)-2′-hydroxy-[1,1′-biphenyl]-4-yl)-3-methyl-1H-imidazol-2(3H)-one] | 30 to 300 | 0.01 to 1
Cn1ccn(-c2ccc(-c3cc(F)cc(-c4ccnc(N5CCN6CCCC6C5)c4)c3O)cc2Cl)c1=O (centres unmarked) [Example 625, 1-(3-chloro-5′-fluoro-3′-(2-(hexahydropyrrolo[1,2-a]pyrazin-2(1H)-yl)pyridin-4-yl)-2′-hydroxy-[1,1′-biphenyl]-4-yl)-3-methyl-1H-imrdazol-2(3H)-one] | 0.3 to 30 | 0.01 to 1
Cn1ccn(-c2ccc(-c3cc(F)cc(-c4ccnc(N5CC[C@H](O)C5)c4)c3O)cc2Cl)c1=O [Example 626, (S)-1-(3-chloro-5′-fluoro-2′-hydroxy-3′-(2-(3-hydroxypyrrolidin-1-yl)pyridin-4-yl)-[1,1′-biphenyl]-4-yl)-3-methyl-1H-imidazol-2(3H)-one] | 30 to 300 | 0.01 to 1
Cn1ccn(-c2ccc(-c3cc(F)cc(-c4ccnc(N5CC[C@@H](O)C5)c4)c3O)cc2Cl)c1=O [Example 627, (R)-1-(3-chloro-5′-fluoro-2′-hydroxy-3′-(2-(3-hydroxypyrrolidin-1-yl)pyridin-4-yl)-[1,1′-biphenyl]-4-yl)-3-methyl-1H-imidazol-2(3H)-one] | 30 to 300 | 0.01 to 1
Cn1ccn(-c2ccc(-c3cc(F)cc(-c4ccnc(N5CCC[C@H](O)C5)c4)c3O)cc2Cl)c1=O [Example 628, (S)-1-(3-chloro-5′-fluoro-2′-hydroxy-3′-(2-(3-hydroxypiperidin-1-yl)pyridin-4-yl)-[1,1′-biphenyl]-4-yl)-3-methyl-1H-imidazol-2(3H)-one] | 30 to 300 | 0.01 to 1
Cn1ccn(-c2ccc(-c3cc(F)cc(-c4ccnc(N5CCN(Cc6ccccc6)CC5)c4)c3O)cc2Cl)c1=O [Example 629, 1-(3′-(2-(4-benzylpiperazin-1-yl)pyridin-4-yl)-3-chloro-5′-fluoro-2′-hydroxy-[1,1′-biphenyl]-4-yl)-3-methyl-1H-imidazol-2(3H)-one] | 30 to 300 | 0.01 to 1
C[C@@H]1CN(c2cc(-c3cc(F)cc(-c4ccc(-n5ccn(C)c5=O)c(Cl)c4)c3O)cn(CCCO)c2=O)CCN1 [Example 630, (R)-5-(3′-chloro-5-fluoro-2-hydroxy-4′-(3-methyl-2-oxo-2,3-dihydro-IH-imidazol-1-yl)-[1,1′-biphenyl]-3-yl)-1-(3-hydroxypropyl)-3-(3-methylpiperazin-1-yl)pyridin-2(1H)-one] | 30 to 300 | 0.01 to 1
Cn1ccn(-c2ccc(-c3cc(F)cc(-c4ccnc(N5CCNC(c6ccccc6)C5)c4)c3O)cc2Cl)c1=O (centres unmarked) [Example 631, 1-(3-chloro-5′-fluoro-2′-hydroxy-3′-(2-(3-phenylpiperazin-1-yl)pyridin-4-yl)-[1,1′-biphenyl]-4-yl)-3-methyl-1H-imidazol-2(3H)-one] | 30 to 300 | 0.01 to 1
C[C@H]1CCCN(c2cc(-c3cc(F)cc(-c4ccc(-n5ccn(C)c5=O)c(Cl)c4)c3O)ccn2)C1 [Example 632, (S)-1-(3-chloro-5′-fluoro-2′-hydroxy-3′-(2-(3-methylpiperidin-1-yl)pyridin-4-yl)-[1,1′-biphenyl]-4-yl)-3-methyl-1H-imidazol-2(3H)-one] | 300 to 3000 | 10 to 100
